The values below come from patent publication US8497289B2, “3.1.0 bicyclic GlyT1 inhibitors and methods of making and using same” (Vanderbilt University, priority 2008, dated 2013).

Some results are limits rather than exact numbers.

In this assay the target is T1, GlyT1 (Homo sapiens, UniProt P48067).
T1 construct: Human placental choriocarcinoma cells endogenously expressing GlyT1; host or cells: JAR cells (human placental choriocarcinoma)
T1 sequence (P48067 1-706): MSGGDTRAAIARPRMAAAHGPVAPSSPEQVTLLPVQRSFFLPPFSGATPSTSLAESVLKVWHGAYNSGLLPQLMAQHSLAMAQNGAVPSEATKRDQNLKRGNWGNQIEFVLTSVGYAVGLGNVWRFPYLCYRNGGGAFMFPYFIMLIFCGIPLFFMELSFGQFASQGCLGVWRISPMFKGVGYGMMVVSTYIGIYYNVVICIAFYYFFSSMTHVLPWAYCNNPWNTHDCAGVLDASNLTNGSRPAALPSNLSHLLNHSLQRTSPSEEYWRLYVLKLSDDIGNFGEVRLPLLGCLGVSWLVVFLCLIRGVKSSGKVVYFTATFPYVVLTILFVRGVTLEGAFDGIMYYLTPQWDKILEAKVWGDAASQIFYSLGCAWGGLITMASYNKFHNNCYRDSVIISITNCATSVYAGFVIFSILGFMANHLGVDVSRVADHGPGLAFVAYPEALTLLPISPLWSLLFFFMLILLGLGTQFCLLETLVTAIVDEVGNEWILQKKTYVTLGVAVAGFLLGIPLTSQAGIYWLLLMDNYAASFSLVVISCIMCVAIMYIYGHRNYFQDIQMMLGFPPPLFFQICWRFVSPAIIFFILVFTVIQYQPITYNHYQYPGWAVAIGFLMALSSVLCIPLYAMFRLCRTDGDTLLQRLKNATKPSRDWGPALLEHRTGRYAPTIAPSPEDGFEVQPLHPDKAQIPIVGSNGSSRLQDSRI
As to the kind of experiment: [14C]-glycine uptake in JAR cells (scintillation proximity, Cytostar T plates). The format is cell-based. The conditions noted are these: read-out: Potency. As to the method: Human placental choriocarcinoma cells endogenously expressing GlyT1 can be cultured using standard conditions. Cells can then be grown at 37° C. in a humidified atmosphere 40-48 hours before the assay. Culture medium can be removed from the culture plate, and cells can be incubated with an amount of TB1A buffer with or without the compounds of the present invention for a sufficient period of time. Then an amount of [^14C]-glycine diluted with TB1A can be added to each well. After incubation the microplates can be sealed and counted. Non-specific uptake of [^14C]-glycine can be determined in the presence of unlabeled glycine. To determine potencies, a range of concentrations of the compounds of the present invention can be added to the cells, followed by the fixed concentration of [^14C]-glycine. The concentration of the present compound that inhibited half of the specific uptake of [^14C]glycine (IC50 value) can be determined from the assay data by non-linear curve fitting.
The procedure used was analogous to that disclosed in Williams, J. B.; Mallorga P. J.; Lemaire W.; Williams D. L.; Na S.; Patel S.; Conn J. P.; Pettibone D. J.; Austin C.; Sur C.; “Development of a scintillation proximity assay for analysis of Na+/Cl−-dependent neurotransmitter transporter activity,” ANAL. BIOCHEM.
Cells were plated at a density of 1.3×10^4 cells/well and grown at 37° C. in a humidified atmosphere of 5% CO2 for 40-48 h. Culture medium was removed from the Cytostar T plate and JAR cells were incubated with 30 μl of TB1A buffer (120 mM NaCl, 2 mM KCl, 1 mM CaCl2, 1 mM MgCl2, 10 mM Hepes, 5 mM L-alanine, pH 7.5 adjusted with 1 M Tris base) with or without multiple concentrations of test compound (added at 2× final concentration) for 1 min. Then 30 μl of [^14C]-glycine (Perkin-Elmer) diluted in TB1A was added to each well to give a final concentration of 10 μM. Cytostar T plates were then incubated in the dark at room temperature for 3 h, sealed with opaque white bottom plate seals (Perkin-Elmer) and clear top plate seals (Topseal A, Perkin-Elmer), and were counted on a Top Count (Packard). Glycine uptake was determined by measuring radioactivity in each well and plotted as a function of concentration of test compound. […] Nonspecific uptake of [^14C]-glycine was determined in the presence of 10 mM cold glycine. [^14C]-taurine (American Radiolabeled Chemicals, Inc.) uptake experiments were performed according to the same protocol except that 10 mM cold taurine was used to determine nonspecific uptake. […] COS-7 cells were transiently transfected with the human GlyT2 cDNA (Origene Technologies Inc., SC303452) using Fugene 6 (Roche) according to the manufacturer's instructions in Dulbecco's modified Eagle's medium (DMEM, Invitrogen) containing 10% Fetal Bovine Serum, 10 mM HEPES, 1 mM sodium pyruvate, penicillin (100 μg/ml), and streptomycin (100 μg/ml). The following day, the cells were plated at a density of 5×10^5 cells/well in Cytostar T plates and maintained at 37° C. in a humidified atmosphere of 5% CO2 for 24 h. GlyT2 glycine uptake experiments were performed according to the same protocol previously described.
(Scintillation proximity formats need no separation of bound from free tracer.)

Take `Cn1cnc(S(=O)(=O)N2CC3C(C2)C3(CNC(=O)c2ccc(Cl)cc2Cl)CC2CC2)c1` (stereo not drawn) [Compound 6a, 2,4-dichloro-N-((6-(cyclopropylmethyl)-3-(1-methyl-1H-imidazol-4-ylsulfonyl)-3-azabicyclo[3.1.0]hexan-6-yl)methyl)benzamide]: the IC50 turned out to be 4.1 nM.
For `Cn1cnc(S(=O)(=O)N2CC3C(C2)C3(CNC(=O)c2ccccc2Cl)CC2CC2)c1` (stereo not drawn) [Compound 6b] the value was 18.6 nM.
Under `Cn1cnc(S(=O)(=O)N2CC3C(C2)C3(CNC(=O)c2ccc(Cl)cc2)CC2CC2)c1` (stereo not drawn) [Compound 6c] stands 32 nM.
Under `Cn1cnc(S(=O)(=O)N2CC3C(C2)C3(CNC(=O)c2ccc(Cl)c(Cl)c2)CC2CC2)c1` (stereo not drawn) [Compound 6d] stands 82 nM.
Regarding `Cn1cnc(S(=O)(=O)N2CC3C(C2)C3(CNC(=O)c2c(F)cccc2F)CC2CC2)c1` (stereo not drawn) [Compound 6e], the IC50 came out at 4 nM.
Under `Cn1cnc(S(=O)(=O)N2CC3C(C2)C3(CNC(=O)c2ccccc2C(F)(F)F)CC2CC2)c1` (stereo not drawn) [Compound 6f] stands 5 nM; under `Cn1cnc(S(=O)(=O)N2CC3C(C2)C3(CNC(=O)c2cccc(C(F)(F)F)c2)CC2CC2)c1` (stereo not drawn) [Compound 6g], 64 nM.
`Cn1cnc(S(=O)(=O)N2CC3C(C2)C3(CNC(=O)c2ccc(F)cc2F)CC2CC2)c1` (stereo not drawn) [Compound 6h]: the IC50 is 44 nM.
For `Cn1cnc(S(=O)(=O)N2CC3C(C2)C3(CNC(=O)c2cc(Cl)cc(Cl)c2)CC2CC2)c1` (stereo not drawn) [Compound 6i] the value was 100 nM.
Turning to `Cn1cnc(S(=O)(=O)N2CC3C(C2)C3(CNC(=O)c2cccc(Cl)c2)CC2CC2)c1` (stereo not drawn) [Compound 6j], the IC50 was found to be 119 nM.
For `CCS(=O)(=O)N1CC2C(C1)C2(CNC(=O)c1ccc(Cl)cc1Cl)CC1CC1` (stereo not drawn) [Compound 8a] the value was 1300 nM; for `CCCS(=O)(=O)N1CC2C(C1)C2(CNC(=O)c1ccc(Cl)cc1Cl)CC1CC1` (stereo not drawn) [Compound 8b], 361 nM.
For `CC(C)S(=O)(=O)N1CC2C(C1)C2(CNC(=O)c1ccc(Cl)cc1Cl)CC1CC1` (stereo not drawn) [Compound 8c], the IC50 turned out to be 3400 nM.
For `O=C(NCC1(CC2CC2)C2CN(S(=O)(=O)CC3CC3)CC21)c1ccc(Cl)cc1Cl` (stereo not drawn) [Compound 8d, 2,4-Dichloro-N-((6-(cyclopropylmethyl)-3-(cyclopropylmethylsulfonyl)-3-azabicyclo[3.1.0]hexan-6-yl)methyl)benzamide] the value was 231 nM; for `CCCS(=O)(=O)N1CC2C(C1)C2(CNC(=O)c1ccccc1F)CC1CC1` (stereo not drawn) [Compound 9a], 2100 nM.
As to `CCCS(=O)(=O)N1CC2C(C1)C2(CNC(=O)c1ccccc1Cl)CC1CC1` (stereo not drawn) [Compound 9b], the IC50 was 1200 nM.
As to `CCCS(=O)(=O)N1CC2C(C1)C2(CNC(=O)c1ccc(Cl)cc1)CC1CC1` (stereo not drawn) [Compound 9c], the IC50 was found to be 1850 nM.
Consider `CCCS(=O)(=O)N1CC2C(C1)C2(CNC(=O)c1cccc(C(F)(F)F)c1)CC1CC1` (stereo not drawn) [Compound 9d], for which the IC50 was found to be 4500 nM.
In the case of `CCCS(=O)(=O)N1CC2C(C1)C2(CNC(=O)c1ccc(C(F)(F)F)cc1)CC1CC1` (stereo not drawn) [Compound 9e], the IC50 is 1100 nM.
For the compound `CCCS(=O)(=O)N1CC2C(C1)C2(CNC(=O)c1ccc(F)cc1Cl)CC1CC1` (stereo not drawn) [Compound 9f], the IC50 was determined as 507 nM.
Take `O=C(NCC1(CC2CC2)C2CN(S(=O)(=O)CC3CC3)CC21)c1ccccc1C(F)(F)F` (stereo not drawn) [Compound 9g]: the IC50 stood at 688 nM.
Under `O=C(NCC1(CC2CC2)C2CN(S(=O)(=O)CC3CC3)CC21)c1ccc(C(F)(F)F)cc1` (stereo not drawn) [Compound 9h] stands 629 nM.
As for `O=C(NCC1(CC2CC2)C2CN(S(=O)(=O)CC3CC3)CC21)c1ccc(F)cc1F` (stereo not drawn) [Compound 9i], the IC50 was 1020 nM.
Under `O=C(NCC1(CC2CC2)C2CN(S(=O)(=O)CC3CC3)CC21)c1c(F)cccc1F` (stereo not drawn) [Compound 9j] stands 1020 nM; under `CS(=O)(=O)N1CC2C(C1)C2(CNC(=O)c1ccc(Cl)cc1Cl)c1ccccn1` (stereo not drawn) [Compound 12a], greater than 20000 nM.
For `CCS(=O)(=O)N1CC2C(C1)C2(CNC(=O)c1ccc(Cl)cc1Cl)c1ccccn1` (stereo not drawn) [Compound 12b] the value was greater than 20000 nM; for `CCCS(=O)(=O)N1CC2C(C1)C2(CNC(=O)c1ccc(Cl)cc1Cl)c1ccccn1` (stereo not drawn) [Compound 12c], greater than 20000 nM; for `Cn1cnc(S(=O)(=O)N2CC3C(C2)C3(CNC(=O)c2ccc(Cl)cc2Cl)c2ccccn2)c1` (stereo not drawn) [Compound 12d, 2,4-dichloro-N-((3-(1-methyl-1H-imidazol-4-ylsulfonyl)-6-(pyridine-2-yl)-3-azabicyclo[3.1.0]hexan-6-yl)methyl)benzamide], 240 nM.
Consider `Cn1cc(S(=O)(=O)N2CC3C(C2)C3(CNC(=O)c2ccc(Cl)cc2Cl)c2ccccn2)cn1` (stereo not drawn) [Compound 12e], for which the IC50 is greater than 20000 nM.
For `O=C(NCC1(c2ccccn2)C2CN(S(=O)(=O)c3ccccc3)CC21)c1ccc(Cl)cc1Cl` (stereo not drawn) [Compound 12f] the value was greater than 20000 nM.
For `O=C(NCC1(c2ccccn2)C2CN(S(=O)(=O)c3ccccn3)CC21)c1ccc(Cl)cc1Cl` (stereo not drawn) [Compound 12g] the value was greater than 20000 nM; for `Cn1cnc(S(=O)(=O)N2CC3C(C2)C3(CNC(=O)c2ccccc2Cl)c2ccccn2)c1` (stereo not drawn) [Compound 13a], 457 nM.
Under `Cn1cnc(S(=O)(=O)N2CC3C(C2)C3(CNC(=O)c2ccccc2C(F)(F)F)c2ccccn2)c1` (stereo not drawn) [Compound 13b, 2-Trifluoromethyl-N-((6-(pyridin-2-yl)-3-(1-methyl-1H-imidazol-4-ylsulfonyl)-3-azabicyclo[3.1.0]hexan-6-yl)methyl)benzamide] stands 190 nM.
